# Results reported in ChEMBL document CHEMBL4052740, “Potent antiobesity effect of a short-length peptide YY-analogue continuously administered in mice” (Bioorg Med Chem Lett, 2017).
# Assays:
# [1] = target: T1, Neuropeptide Y receptor type 2 (Homo sapiens, UniProt P49146); test: Displacement of [125I]peptide YY from human Y2 receptor expressed in CHO cell membranes after 60 mins by TopCount scintillation counting analysis
# T1 sequence (P49146 whole entry): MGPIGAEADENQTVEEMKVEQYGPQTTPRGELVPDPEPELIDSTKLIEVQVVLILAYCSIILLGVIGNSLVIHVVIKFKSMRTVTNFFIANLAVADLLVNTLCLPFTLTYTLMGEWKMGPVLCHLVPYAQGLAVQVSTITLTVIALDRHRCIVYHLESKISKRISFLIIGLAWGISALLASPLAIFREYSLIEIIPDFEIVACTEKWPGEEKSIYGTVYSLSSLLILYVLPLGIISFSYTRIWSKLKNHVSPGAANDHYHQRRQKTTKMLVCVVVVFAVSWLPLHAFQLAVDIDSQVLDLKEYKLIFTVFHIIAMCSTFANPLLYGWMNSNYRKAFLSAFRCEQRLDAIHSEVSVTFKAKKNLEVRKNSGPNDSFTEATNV
# [2] = tested on: Mus musculus; test: Anorectic activity in C57BL/6J mouse assessed as inhibition of food intake at 1 mg/kg/day, sc administered by infusion as continuous dosing for 3 days relative to 1 mg/kg/day PYY (3 to 36 residues); format: functional; conditions: 72 h
# [3] = target: T1, Neuropeptide Y receptor type 2; test: Agonist activity at human Y2 receptor expressed in CHO cell membranes after 120 mins by [35S]GTPgammaS binding assay; format: functional
IC50 [1] [nM],EC50 [3] [nM],SMILES,inhibition in vivo at 1 mg/kg/day [2] [%]
0.94,0.41,CC(=O)N[C@@H](CO)C(=O)N1CCC[C@@H]1C(=O)N[C@@H](CCCNC(=N)N)C(=O)N[C@@H](Cc1cnc[nH]1)C(=O)N[C@@H](CC1CCCCC1)C(=O)N[C@@](C)(CC(C)C)C(=O)N[C@@H](CC(N)=O)C(=O)N[C@@H](CC(C)C)C(=O)NC(C)(C)C(=O)N[C@H](C(=O)N[C@@H](CCCNC(=N)N)C(=O)N[C@@H](CCC(N)=O)C(=O)N[C@@H](CCCNC(=N)N)C(=O)N[C@@H](CC1CCCCC1)C(N)=O)[C@@H](C)O,59
0.6,0.16,CC(=O)N[C@@H](CO)C(=O)N1CCC[C@@H]1C(=O)N[C@@H](CCCNC(=N)N)C(=O)N[C@@H](Cc1cnc[nH]1)C(=O)N[C@@H](CC1CCCCC1)C(=O)N[C@@H](CC1CCCCC1)C(=O)N[C@@H](CC(N)=O)C(=O)N[C@@H](CCCNC(=N)N)C(=O)NC(C)(C)C(=O)N[C@H](C(=O)N[C@@H](CCCNC(=N)N)C(=O)N[C@@H](CCC(N)=O)C(=O)N[C@@H](CCCNC(=N)N)C(=O)N[C@@H](CC1CCCCC1)C(N)=O)[C@@H](C)O,59
0.97,0.33,CC(=O)N[C@@H](CO)C(=O)N1CCC[C@@H]1C(=O)N[C@@H](CCCNC(=N)N)C(=O)N[C@@H](CO)C(=O)N[C@@H](CC1CCCCC1)C(=O)N[C@@H](CC1CCCCC1)C(=O)N[C@@H](CC(N)=O)C(=O)N[C@@H](CC(C)C)C(=O)NC(C)(C)C(=O)N[C@H](C(=O)N[C@@H](CCCNC(=N)N)C(=O)N[C@@H](CCC(N)=O)C(=O)N[C@@H](CCCNC(=N)N)C(=O)N[C@@H](CC1CCCCC1)C(N)=O)[C@@H](C)O,54
0.49,0.19,CC(=O)N[C@@H](CO)C(=O)N1CCC[C@@H]1C(=O)N[C@@H](CCCNC(=N)N)C(=O)N[C@@H](Cc1ccncc1)C(=O)N[C@@H](CC1CCCCC1)C(=O)N[C@@H](CC1CCCCC1)C(=O)N[C@@H](CC(N)=O)C(=O)N[C@@H](CC(C)C)C(=O)NC(C)(C)C(=O)N[C@H](C(=O)N[C@@H](CCCNC(=N)N)C(=O)N[C@@H](CCC(N)=O)C(=O)N[C@@H](CCCNC(=N)N)C(=O)N[C@@H](CC1CCCCC1)C(N)=O)[C@@H](C)O,72
2.3,0.6,CC(=O)N[C@@H](CO)C(=O)N1CCC[C@@H]1C(=O)N[C@@H](CCCNC(=N)N)C(=O)N[C@@H](Cc1cnc[nH]1)C(=O)N[C@@H](CC1CCCCC1)C(=O)N[C@@H](CC1CCCCC1)C(=O)N[C@@H](CC(N)=O)C(=O)N[C@@H](CO)C(=O)NC(C)(C)C(=O)N[C@H](C(=O)N[C@@H](CCCNC(=N)N)C(=O)N[C@@H](CCC(N)=O)C(=O)N[C@@H](CCCNC(=N)N)C(=O)N[C@@H](CC1CCCCC1)C(N)=O)[C@@H](C)O,
0.55,0.2,CC(=O)N[C@@H](CO)C(=O)N1CCC[C@@H]1C(=O)N[C@@H](CCCNC(=N)N)C(=O)N[C@@H](Cc1cnc[nH]1)C(=O)N[C@@H](CC1CCCCC1)C(=O)N[C@@H](CC1CCCCC1)C(=O)N[C@@H](CC(N)=O)C(=O)N[C@@H](CCCCN)C(=O)NC(C)(C)C(=O)N[C@H](C(=O)N[C@@H](CCCNC(=N)N)C(=O)N[C@@H](CCC(N)=O)C(=O)N[C@@H](CCCNC(=N)N)C(=O)N[C@@H](CC1CCCCC1)C(N)=O)[C@@H](C)O,79
1.2,0.068,CC(=O)N[C@@H](CO)C(=O)N1CCC[C@@H]1C(=O)N[C@@H](CCCNC(=N)N)C(=O)N[C@@H](Cc1cnc[nH]1)C(=O)N[C@@H](CC1CCCCC1)C(=O)N[C@@H](CC1CCCCC1)C(=O)N[C@@H](CC(N)=O)C(=O)N[C@@H](CCCN)C(=O)NC(C)(C)C(=O)N[C@H](C(=O)N[C@@H](CCCNC(=N)N)C(=O)N[C@@H](CCC(N)=O)C(=O)N[C@@H](CCCNC(=N)N)C(=O)N[C@@H](CC1CCCCC1)C(N)=O)[C@@H](C)O,22
2.5,0.75,CC(=O)N[C@@H](CO)C(=O)N1CCC[C@@H]1C(=O)N[C@@H](CCCNC(=N)N)C(=O)N[C@@H](Cc1cnc[nH]1)C(=O)N[C@@H](CC1CCCCC1)C(=O)N[C@@H](Cc1ccncc1)C(=O)N[C@@H](CC(N)=O)C(=O)N[C@@H](CC(C)C)C(=O)NC(C)(C)C(=O)N[C@H](C(=O)N[C@@H](CCCNC(=N)N)C(=O)N[C@@H](CCC(N)=O)C(=O)N[C@@H](CCCNC(=N)N)C(=O)N[C@@H](CC1CCCCC1)C(N)=O)[C@@H](C)O,41
3,0.48,CC(=O)N[C@@H](CO)C(=O)N1CCC[C@@H]1C(=O)N[C@@H](CCCNC(=N)N)C(=O)N[C@@H](Cc1cnc[nH]1)C(=O)N[C@@H](CC1CCCCC1)C(=O)N[C@@H](CC1CCCCC1)C(=O)N[C@@H](CC(N)=O)C(=O)N[C@@H](Cc1ccncc1)C(=O)NC(C)(C)C(=O)N[C@H](C(=O)N[C@@H](CCCNC(=N)N)C(=O)N[C@@H](CCC(N)=O)C(=O)N[C@@H](CCCNC(=N)N)C(=O)N[C@@H](CC1CCCCC1)C(N)=O)[C@@H](C)O,
1.1,0.42,CC(=O)N[C@@H](CO)C(=O)N1CCC[C@@H]1C(=O)N[C@@H](CCCNC(=N)N)C(=O)N[C@@H](CCC(N)=O)C(=O)N[C@@H](CC1CCCCC1)C(=O)N[C@@H](CC1CCCCC1)C(=O)N[C@@H](CC(N)=O)C(=O)N[C@@H](CC(C)C)C(=O)NC(C)(C)C(=O)N[C@H](C(=O)N[C@@H](CCCNC(=N)N)C(=O)N[C@@H](CCC(N)=O)C(=O)N[C@@H](CCCNC(=N)N)C(=O)N[C@@H](CC1CCCCC1)C(N)=O)[C@@H](C)O,55
2.6,1.7,CC(=O)N[C@@H](CO)C(=O)N1CCC[C@@H]1C(=O)N[C@@H](CCCNC(=N)N)C(=O)N[C@@H](Cc1cnc[nH]1)C(=O)NC(C)(C)C(=O)N[C@@H](CC1CCCCC1)C(=O)N[C@@H](CC(N)=O)C(=O)N[C@@H](CC(C)C)C(=O)NC(C)(C)C(=O)N[C@H](C(=O)N[C@@H](CCCNC(=N)N)C(=O)N[C@@H](CCC(N)=O)C(=O)N[C@@H](CCCNC(=N)N)C(=O)N[C@@H](CC1CCCCC1)C(N)=O)[C@@H](C)O,
6,1.8,CC(=O)N[C@@H](CO)C(=O)N1CCC[C@@H]1C(=O)N[C@@H](CCCNC(=N)N)C(=O)N[C@@H](Cc1cnc[nH]1)C(=O)N[C@@H](Cc1ccncc1)C(=O)N[C@@H](CC1CCCCC1)C(=O)N[C@@H](CC(N)=O)C(=O)N[C@@H](CC(C)C)C(=O)NC(C)(C)C(=O)N[C@H](C(=O)N[C@@H](CCCNC(=N)N)C(=O)N[C@@H](CCC(N)=O)C(=O)N[C@@H](CCCNC(=N)N)C(=O)N[C@@H](CC1CCCCC1)C(N)=O)[C@@H](C)O,
8.7,4.4,CC(=O)N[C@@H](CO)C(=O)N1CCC[C@@H]1C(=O)N[C@@H](CCCNC(=N)N)C(=O)N[C@@H](Cc1cnc[nH]1)C(=O)N[C@@H](CCC(N)=O)C(=O)N[C@@H](CC1CCCCC1)C(=O)N[C@@H](CC(N)=O)C(=O)N[C@@H](CC(C)C)C(=O)NC(C)(C)C(=O)N[C@H](C(=O)N[C@@H](CCCNC(=N)N)C(=O)N[C@@H](CCC(N)=O)C(=O)N[C@@H](CCCNC(=N)N)C(=O)N[C@@H](CC1CCCCC1)C(N)=O)[C@@H](C)O,
11,3.8,CC(=O)N[C@@H](CO)C(=O)N1CCC[C@@H]1C(=O)N[C@@H](CCCNC(=N)N)C(=O)N[C@@H](Cc1cnc[nH]1)C(=O)N[C@@H](Cc1cnc[nH]1)C(=O)N[C@@H](CC1CCCCC1)C(=O)N[C@@H](CC(N)=O)C(=O)N[C@@H](CC(C)C)C(=O)NC(C)(C)C(=O)N[C@H](C(=O)N[C@@H](CCCNC(=N)N)C(=O)N[C@@H](CCC(N)=O)C(=O)N[C@@H](CCCNC(=N)N)C(=O)N[C@@H](CC1CCCCC1)C(N)=O)[C@@H](C)O,
1.3,0.21,CCCC[C@H](NC(=O)[C@H](CC(N)=O)NC(=O)[C@H](CC1CCCCC1)NC(=O)[C@H](CC1CCCCC1)NC(=O)[C@H](Cc1cnc[nH]1)NC(=O)[C@H](CCCNC(=N)N)NC(=O)[C@H]1CCCN1C(=O)[C@H](CO)NC(C)=O)C(=O)NC(C)(C)C(=O)N[C@H](C(=O)N[C@@H](CCCNC(=N)N)C(=O)N[C@@H](CCC(N)=O)C(=O)N[C@@H](CCCNC(=N)N)C(=O)N[C@@H](CC1CCCCC1)C(N)=O)[C@@H](C)O,
5.3,2.5,CC(=O)N[C@@H](CO)C(=O)N1CCC[C@@H]1C(=O)N[C@@H](CCCNC(=N)N)C(=O)N[C@@H](Cc1cnc[nH]1)C(=O)N[C@@H](Cc1ccc(O)cc1)C(=O)N[C@@H](CC1CCCCC1)C(=O)N[C@@H](CC(N)=O)C(=O)N[C@@H](CC(C)C)C(=O)NC(C)(C)C(=O)N[C@H](C(=O)N[C@@H](CCCNC(=N)N)C(=O)N[C@@H](CCC(N)=O)C(=O)N[C@@H](CCCNC(=N)N)C(=O)N[C@@H](CC1CCCCC1)C(N)=O)[C@@H](C)O,
2.8,1,CC(=O)N[C@@H](CO)C(=O)N1CCC[C@@H]1C(=O)N[C@@H](CCCNC(=N)N)C(=O)N[C@@H](Cc1cnc[nH]1)C(=O)N[C@@H](CC1CCCCC1)C(=O)N[C@@H](Cc1cnc[nH]1)C(=O)N[C@@H](CC(N)=O)C(=O)N[C@@H](CC(C)C)C(=O)NC(C)(C)C(=O)N[C@H](C(=O)N[C@@H](CCCNC(=N)N)C(=O)N[C@@H](CCC(N)=O)C(=O)N[C@@H](CCCNC(=N)N)C(=O)N[C@@H](CC1CCCCC1)C(N)=O)[C@@H](C)O,
